Several values for one entry are separate records, joined by “and”; a condition that tells them apart may be missing. Equal entries are not always repeated. Marks after values point to notes of the source that are not given here. Strand notation (5' to 3'): a small letter for the sugar, then the base; units joined by * are phosphorothioate-linked, units joined directly phosphodiester-linked; [ ] holds rarer units or linkages, { } end groups; capitals alone tell only the bases. [ms] = mesyl phosphoramidate linkage; e = 2'-O-(2-methoxyethyl) (MOE); k = constrained ethyl (cEt); [5mC] = 5-methylcytosine; d = 2'-deoxy (DNA)
What was measured:
human APOE RNA [1] = experiment: Dose-dependent inhibition of human APOE RNA in HepG2 cells, electroporation, 50,000 cells per well, RT-PCR normalized to GAPDH (Example 4, Tables 8-10); type: cell-based; details: HepG2 cells, electroporation, Table 8
Summary of the method: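 Readout is percent APOE RNA versus untreated controls, measured by RT-PCR (primer probe set RTS3073) and normalized to human GAPDH. Modified oligonucleotides were delivered by electroporation at varying doses into HepG2 cells plated at 50,000 per well.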

human APOE RNA [2] = experiment: Potency (dose response, ED50) in APOE C57BL/6NTac-Apoeem7250 knock-in mice, 4 weeks (Example 14); type: in vivo
Description: Modified oligonucleotides described above were tested in the APOE C57BL/6NTac-Apoeem7250 knock-in mouse model described above.
APOE C57BL/6NTac-Apoeem7250 knock-in mice were divided into groups of 3-4 mice each. A group of 3-4 mice received a single ICV bolus with PBS as a negative control.
Four weeks post treatment, mice were sacrificed, and RNA was extracted from cortical brain tissue and spinal cord for quantitative real-time RT-PCR analysis of RNA expression of […] using human primer probe set RTS3073 (described herein above). APOE RNA levels were normalized to mouse Ppia. Mouse Ppia was amplified using primer probe set m_cyclo24 (described herein above). Results are presented as percent human APOE RNA relative to the amount of APOE RNA in PBS treated animals, (% control). N.C. indicates values that were not calculated. Each experiment is identified in separate tables below.
The half maximal effective dose (ED50) of each modified oligonucleotide was calculated using GraphPad Prism 10 software (GraphPad Software, San Diego, CA).

human APOE RNA [3] = experiment: Dose-dependent reduction of human APOE RNA in HepG2 cells, electroporation, 20,000 cells per well, normalized to PPIA (Example 4, Table 11); type: cell-based; details: HepG2 cells, 20,000 cells per well, approximately 24 hours
Description: HepG2 cells plated at a density of 20,000 cells per well were treated by electroporation with various concentrations of modified oligonucleotide as specified in the tables below. […] APOE RNA levels were measured using the human primer probe set RTS3073 (described herein above). APOE RNA levels were normalized to human PPIA. Human PPIA was amplified using human primer probe set mk_cycloA_2nd (forward sequence […], designated herein as SEQ ID NO: 13; reverse sequence […], designated herein as SEQ ID NO: 14; probe sequence […], designated herein as SEQ ID NO: 15). Normalized results are presented in the table below as percent APOE RNA, relative to the amount of APOE RNA in untreated control cells (% UTC). The half maximal inhibitory concentration (IC50) of each modified oligonucleotide was calculated in GraphPad Prism 10 (GraphPad Software, San Diego, CA) and is also presented in the table below.

human APOE RNA [4] = experiment: Duration of action study in APOE C57BL/6NTac-Apoeem7250 knock-in mice (Example 16); type: in vivo; details: 300 μg ICV
Summary of the method: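 Knock-in mice (2-4 per group) received a single ICV bolus of 300 μg oligonucleotide or PBS. At various timepoints, cortex and spinal cord human APOE RNA was measured by RT-qPCR (RTS3073), normalized to mouse Ppia and expressed as % of PBS control.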

human APOE RNA [5] = experiment: Duration of action study in APOE C57BL/6NTac-Apoeem7250 knock-in mice (Example 18); type: in vivo
Description: Modified oligonucleotides described above were tested in the APOE C57BL/6NTac-Apoeem7250 knock-in model (described above).
Each mouse received a single intracerebroventricular (ICV) bolus of 300 μg of modified oligonucleotide. A group of 4-6 mice received a single ICV bolus with PBS as a negative control.
Mice were sacrificed at various timepoints as indicated in the table below and RNA was extracted from cortical brain tissue and spinal cord for quantitative real-time RT-PCR analysis of RNA expression of APOE using primer probe set RTS3073 (described herein above). APOE RNA levels were normalized to mouse Ppia. Mouse Ppia was amplified using primer probe set m_cyclo24 (described herein above). Results are presented as percent human APOE RNA relative to the amount of human APOE RNA in PBS treated animals, (% control). Each experiment is identified in separate tables below.

[6] = 196 days post-dose, single ICV bolus 300 μg, APOE knock-in mice, normalized to mouse Ppia, relative to PBS
[7] = 224 days post-dose, single ICV bolus 300 μg, APOE knock-in mice, normalized to mouse Ppia, relative to PBS
[8] = 285 days post-dose, single ICV bolus 300 μg, APOE knock-in mice, normalized to mouse Ppia, relative to PBS

In the case of “1785598: modified oligonucleotide complementary to human APOE RNA (k[5mC]*kT*kT*dG[ms]dG[ms]dT[ms]dG[ms]dA[ms]dA[ms]dT*d[5mC]*dT*dT*dT*dA*dT[ms]kT*kA*dA[ms]kA; antisense) [compound 1785598]”, the “APOE RNA (% UTC) 5 nM” value (human APOE RNA [1]; 24-hour treatment, 5 nM) is reported as 112 % UTC, the “APOE RNA (% UTC) 13 nM” value (human APOE RNA [1]; 24-hour treatment, 13 nM) is reported as 109 % UTC and the “APOE RNA (% UTC) 33 nM” value (human APOE RNA [1]; 24-hour treatment, 33 nM) is reported as 110 % UTC. The “APOE RNA (% UTC) 82 nM” value (human APOE RNA [1]; 24-hour treatment, 82 nM) was 95 % UTC, the “APOE RNA (% UTC) 205 nM” value (human APOE RNA [1]; 24-hour treatment, 205 nM) was 70 % UTC and the “APOE RNA (% UTC) 512 nM” value (human APOE RNA [1]; 24-hour treatment, 512 nM) was 73 % UTC. The “APOE RNA (% UTC) 1,280 nM” value (human APOE RNA [1]; 24-hour treatment, 1,280 nM) was 33 % UTC, the “APOE RNA (% UTC) 3,200 nM” value (human APOE RNA [1]; 24-hour treatment, 3,200 nM) was 21 % UTC and the “APOE RNA (% UTC) 8,000 nM” value (human APOE RNA [1]; 24-hour treatment, 8,000 nM) was 8 % UTC. The “APOE RNA (% UTC) 20,000 nM” value (human APOE RNA [1]; 24-hour treatment, 20,000 nM) was 9 % UTC, the IC50 (human APOE RNA [1]; reduction of human APOE RNA, 24-hour treatment) was 840 nM and the “APOE RNA (% control) Cortex” value (human APOE RNA [2]; cortex, ICV dose 10 μg) was 104 % control. The “APOE RNA (% control) Cortex” value (human APOE RNA [2]; cortex, ICV dose 30 μg) was 84 % control, the “APOE RNA (% control) Cortex” value (human APOE RNA [2]; cortex, ICV dose 100 μg) was 60 % control and the “APOE RNA (% control) Cortex” value (human APOE RNA [2]; cortex, ICV dose 300 μg) was 37 % control. The “APOE RNA (% control) Cortex” value (human APOE RNA [2]; cortex, ICV dose 700 μg) was 23 % control, the “ED 50 (μg) Cortex” value (human APOE RNA [2]; cortex, single ICV bolus, GraphPad Prism 10) was 175.4 µg and the “APOE RNA (% control) Spinal Cord” value (human APOE RNA [2]; spinal cord, ICV dose 10 μg) was 97 % control. For the same substance, the “APOE RNA (% control) Spinal Cord” value (human APOE RNA [2]; spinal cord, ICV dose 30 μg) was 70 % control, the “APOE RNA (% control) Spinal Cord” value (human APOE RNA [2]; spinal cord, ICV dose 100 μg) was 65 % control and the “APOE RNA (% control) Spinal Cord” value (human APOE RNA [2]; spinal cord, ICV dose 300 μg) was 60 % control. The “APOE RNA (% control) Spinal Cord” value (human APOE RNA [2]; spinal cord, ICV dose 700 μg) was 41 % control and the “ED 50 (μg) Spinal Cord” value (human APOE RNA [2]; spinal cord, single ICV bolus, GraphPad Prism 10) was 416.7 µg.
“Aks^mCeoTeoTesGesGksTdsGdzAdzAdzTds^mCdsTdsTdsTdsAdzTksTksAesAe (kA*e[5mC]eTeT*eG*kG*dT*dG[ms]dA[ms]dA[ms]dT*d[5mC]*dT*dT*dT*dA[ms]kT*kT*eA*eA) [Compound No. 1809635]” was tested, and the “APOE RNA (% UTC) 5 nM” value (human APOE RNA [3]; PPIA-normalized, 5 nM) was 105 % UTC, the “APOE RNA (% UTC) 13 nM” value (human APOE RNA [3]; PPIA-normalized, 13 nM) was 87 % UTC and the “APOE RNA (% UTC) 33 nM” value (human APOE RNA [3]; PPIA-normalized, 33 nM) was 78 % UTC. For the same substance, the “APOE RNA (% UTC) 82 nM” value (human APOE RNA [3]; PPIA-normalized, 82 nM) was 66 % UTC, the “APOE RNA (% UTC) 205 nM” value (human APOE RNA [3]; PPIA-normalized, 205 nM) was 55 % UTC and the “APOE RNA (% UTC) 512 nM” value (human APOE RNA [3]; PPIA-normalized, 512 nM) was 31 % UTC. For the same substance, the “APOE RNA (% UTC) 1,280 nM” value (human APOE RNA [3]; PPIA-normalized, 1,280 nM) was 18 % UTC, the “APOE RNA (% UTC) 3,200 nM” value (human APOE RNA [3]; PPIA-normalized, 3,200 nM) was 16 % UTC and the “APOE RNA (% UTC) 8,000 nM” value (human APOE RNA [3]; PPIA-normalized, 8,000 nM) was 4 % UTC. For the same substance, the “APOE RNA (% UTC) 20,000 nM” value (human APOE RNA [3]; PPIA-normalized, 20,000 nM) was 2 % UTC, the IC50 (human APOE RNA [3]; reduction of human APOE RNA, PPIA-normalized) was 210 nM and the “APOE RNA (% control) Cortex” value (human APOE RNA [4]; 7 days post-dose) was 40 % control. The “APOE RNA (% control) Cortex” value (human APOE RNA [4]; 14 days post-dose) was 30 % control, the “APOE RNA (% control) Spinal Cord” value (human APOE RNA [4]; 7 days post-dose) was 44 % control and the “APOE RNA (% control) Spinal Cord” value (human APOE RNA [4]; 14 days post-dose) was 27 % control. For the same substance, the “APOE RNA (% control) Cortex” value (human APOE RNA [5]; 300 μg ICV, 28 days post-dose) was 29 % control and 25 % control, the “APOE RNA (% control) Cortex” value (human APOE RNA [5]; 300 μg ICV, 56 days post-dose) was 19 % control and the “APOE RNA (% control) Cortex” value (human APOE RNA [5]; 300 μg ICV, 112 days post-dose) was 24 % control and 35 % control. For the same substance, the “APOE RNA (% control) Cortex” value (human APOE RNA [5]; 300 μg ICV, 140 days post-dose) was 52‡ % control, the “APOE RNA (% control) Cortex” value (human APOE RNA [5]; 300 μg ICV, 168 days post-dose) was 35 % control and the “APOE RNA (% control) Cortex” value (human APOE RNA [5]; 300 μg ICV, 342 days post-dose) was 68 % control. The “APOE RNA (% control) Cortex” value (human APOE RNA [5]; [6]) was 50 % control, the “APOE RNA (% control) Cortex” value (human APOE RNA [5]; [7]) was 55 % control and the “APOE RNA (% control) Cortex” value (human APOE RNA [5]; [8]) was 67 % control. For the same substance, the “APOE RNA (% control) Spinal Cord” value (human APOE RNA [5]; 300 μg ICV, 28 days post-dose) was 11 % control and 18 % control, the “APOE RNA (% control) Spinal Cord” value (human APOE RNA [5]; 300 μg ICV, 56 days post-dose) was 11 % control and the “APOE RNA (% control) Spinal Cord” value (human APOE RNA [5]; 300 μg ICV, 112 days post-dose) was 13 % control and 14 % control. The “APOE RNA (% control) Spinal Cord” value (human APOE RNA [5]; 300 μg ICV, 140 days post-dose) was 27‡ % control, the “APOE RNA (% control) Spinal Cord” value (human APOE RNA [5]; 300 μg ICV, 168 days post-dose) was 26 % control and the “APOE RNA (% control) Spinal Cord” value (human APOE RNA [5]; 300 μg ICV, 342 days post-dose) was 36 % control. For the same substance, the “APOE RNA (% control) Spinal Cord” value (human APOE RNA [5]; [6]) was 33 % control, the “APOE RNA (% control) Spinal Cord” value (human APOE RNA [5]; [7]) was 26 % control and the “APOE RNA (% control) Spinal Cord” value (human APOE RNA [5]; [8]) was 41 % control.

Reference: US20250353873A1, “COMPOUNDS AND METHODS FOR MODULATING APOE EXPRESSION” (Ionis Pharmaceuticals, Inc., priority 2024, published 2025)
